Read-outs that look alike come from different tables or passages of the source.
Legend:
[1] = tested on: X. citri subsp. citri strain 306 (IBSBF 1594); assay: MBC, REMA plates replicated to Petri dishes; type: cell-based, Xanthomonas citri subsp. citri; conditions: Xanthomonas citri; Petri dishes from REMA plates, 29 °C, 24 to 48 h; read-out: MBC
Procedure: The minimal bactericidal concentration (MBC) was determined by observing the bacterial growth in Petri dishes transferred from the REMA plates.
(§1) The antibacterial activity of alkyl dihydroxybenzoates and the determination of minimum inhibition concentration (MIC) were performed by the fluorimetric method Resazurin Microtiter Assay (REMA) with some modifications. An overnight culture of X. citri subsp. citri strain 306 (IBSBF 1594) was grown in 20 mL in Nitrogen Yeast Glycerol (NYG) at 29 °C in constant agitation of 180–200 rpm. After 12 h, the Xcc inoculum was dispersed in NYG medium and distributed into a 96 well microtiter plate to a final volume of 100 μL per well (10^5 CFU per well). Stock solutions of tested compounds at 10 mg mL^−1 were prepared in dimethyl sulfoxide (DMSO) and dispersed in NYG medium to obtain 1% DMSO and the final compound concentration range of 0.78–100 μg mL^−1. The negative control was constituted of 100 μL culture medium. In addition, the copper oxychloride was tested as a comparison to alkyl dihydroxybenzoates and kanamycin (20 μg mL^−1), which was used as a control antibiotic. The plate was subsequently incubated at 29 °C for 12 h, and 15 μg mL^−1 freshly prepared resazurin solution in water was added to each well, and the plate was incubated for 2 h. The fluorescence was determined on a Synergy H1 (BioTek, Winooski, VT, USA) microplate reader using the excitation and emission filters at wavelengths of 530 and 590 nm respectively. After the REMA assay, the minimum bactericidal concentration (CBM) assay was performed using a 96-pin stainless steel plate replicator, accurately transferring the wells from the REMA plate to Petri dishes Petri dishes were incubated in oven B.O.D. at 29 °C for 24 to 48 h. The experiments were performed in triplicate.

[2] = tested on: Xanthomonas citri subsp. citri; assay: Growth curve of Xcc (OD 600 nm); type: cell-based; conditions: MIC and ½ MIC, 72 h
Procedure: According to the growth curves of the positive control (PC) and vehicle control (DMSO), it was observed that Xcc reaches the maximum growth phase in a period of 15 h. […] The early growth inhibition (lag phase), which happens in the first hours of contact (period of the first cellular divisions) can be a dynamic process. […] This can be explained because the compounds have bacteriostatic action; that is, as the time passes, the cells become able to recover and restart doubling. Another important finding is that the lag phase consists in the cell adaptation to the new medium conditions and the bacterial population is smaller in relation to the exponential phase facilitates the action of the compounds in the first hours (Figure 1).
An isolated colony of Xanthomonas citri subsp. citri was inoculated in NYG medium for 12 h at 29 °C. After this, the optical density (OD 600 nm) was measured and adjusted to ~0.1. […] Optical density reading was measured on a Synergy H1-BioTek plate reader every 30 min for 72 h. The growth curves were plotted with GraphPad Prism software. At the same time, the degradation assay was performed, solubilizing the compounds in DMSO, which were later incorporated in NYG medium. Later, we scanned the compounds to measure the absorbance values from 210 to 700 nm, and the maximum lambda value of each compound was selected after scanning. After that, punctual readings were carried out every 30 min for 72 h.

[3] = tested on: ACHN (human renal adenocarcinoma cell line); assay: Cytotoxicity MTT assay, ACHN; type: cell-based
Procedure: This test is based on the reduction of 3-(4,5-dimethyl-2-thiazolyl)-2,5-diphenyl-2-tetrazole bromide by viable cells, with formation of violet insoluble formazan crystals. Five cell lines were used in order to evaluate the cytotoxic effect of the compounds as a whole.
The cytotoxicity of compounds 4, 16, 28 and copper oxychloride was determined by MTT assay. The cell lines used were HaCaT (human keratinocyte cell line—CLS 300493), Huh-7.5 (human hepatoma cell line—ATCC® PTA-8561), MRC-5 (human lung fibroblast cell line—ATCC CCL-171), VERO (monkey kidney epithelial cell line—ATCC® CCL81) and ACHN (human renal adenocarcinoma cell line—ATCC® CRL1611). The cells were cultured in appropriate medium recommended by the American Type Culture Collection.
The assay was performed with the concentration of 10^4 cells for both cell lines, distributed in 96-well plates and incubated at 37 °C in a 5% CO2 controlled atmosphere oven for 24 h. After the incubation period, the cells were treated with the compounds with a range of 1.56–200 μmol L^−1 and incubated for 24 h. The supernatant was removed, then 100 μL of 3-(4,5-dimethyl-2-thiazolyl)-2,5-diphenyl-2H-tetrazolium (MTT) salt at 1 mg mL^−1 diluted in DMEM medium (Gibco Life Technologies, Gaithersburg, MD, USA) was added and incubated for 30 min. Subsequently, the MTT was removed, then 100 μL of DMSO under agitation for 5 min at 60 rpm was added. The plates were read at 570 nm in a FLUOstar Omega/BMG LABTECH plate reader, Offenburg, BW, DE. We carried out the experiments in triplicate and three independent events for statistical analysis (GraphPad Software, San Diego, CA, USA). The MTT assay is based on the tetrazolium salt (yellow-colored) reduction to formazan (purple-colored) by metabolically active cells.

[4] = tested on: X. citri subsp. citri strain 306 (IBSBF 1594); assay: MIC by Resazurin Microtiter Assay (REMA); type: cell-based, Xanthomonas citri subsp. citri; conditions: Xanthomonas citri, 12 h, REMA, NYG medium, 29 °C
Procedure: The antibacterial potential of carboxylic acids and their esters were compared to copper oxychloride (a commercial active often used to combat citrus canker). Minimal inhibitory concentration (MIC) values were determined by REMA assay, which measures cellular respiratory activity.
as §1

[5] = Homo sapiens, ACHN, 24 h, read-out: IC50 ACHN, MTT, 24 h treatment
[6] = MTT, 24 h treatment, read-out: IC50 ACHN

Row | SMILES | MBC [1] [µg/mL] | effect on Xcc growth curve [2] | IC50 [3, 5] [µM] | IC50 [3, 6] [µM] | MIC ([4]; read-out: MIC in μM) [µM] | MIC ([4]; read-out: MIC) [µg/mL]
1 | CCCCCCCOC(=O)c1ccc(O)cc1O [Compound 4] | 25 | delay in the exponential phase | > 100 | 153 ± 7.07 | 52 | –
2 | CCCCCCCOC(=O)c1cc(O)ccc1O [Compound 16] | 25 | delay in the exponential phase | > 100 | 140 ± 7.56 | 80 | –
3 | CCCCCCCOC(=O)c1ccc(O)c(O)c1 [Compound 28] | 50 | delay in the exponential phase | > 100 | 114 ± 9.97 | 88 | 22.2

— PMC6213047, “Design of Antibacterial Agents: Alkyl Dihydroxybenzoates against Xanthomonas citri subsp. citri” (International Journal of Molecular Sciences, 2018)
